Measured values from PMC12073189, “Synthesis and Evaluation of a Novel Zuranolone Analog with High GABAA Receptor PAM Activity and Excellent Pharmacokinetic Profiles” (Molecules, 2025).
Values joined by “and” are separate entries in the source; they are usually repeats but may differ in a detail not shown here. Identical values can stand only once. “Also recorded” adds a separate entry of the source.

Tests used:
[1] = Brain distribution in rats; type: in vivo, rat; details: i.g. 24.4 μmol/kg
Procedure: (§1) We quantified S1–S15 and Zuranolone using a UPLC-MS/MS (Agilent 1290 Infinity II UHPLC (Agilent Technologies, Santa Clara, CA, USA) coupled with a QTRAP 5500 MS/MS (ESI source) (SCIEX, Redwood City, CA, USA for MS/MS). The method assessed the content level of S9 and Zuranolone in microsome metabolism and in rat brain tissue and plasma. An ACQUITY UPLC Peptide BEH C18 column (Waters; 50 × 2.1 mm, 1.7 μm; 60 °C; Waters Corporation, Milford, MA, USA) was used with a mobile phase of 0.02% propionic acid in water (A) and acetonitrile (B). The gradient elution of the mobile phase B is carried out as follows: it is 10% from 0 to 0.5 min, 90% from 0.8 to 2.5 min, and 10% from 2.8 to 3.5 min, with a flow rate of 0.40 mL/min. Quantitative analysis was performed on a QTRAP 5500 MS (SCIEX, Redwood City, CA, USA) in positive ionization mode with MRM (multiple reaction monitoring), using progesterone-d9 as the internal standard. MRM transitions and parameters were optimized for each analyte, with collision energies of 25 V (S1–S15), 23 V (Zuranolone), and 30 V (IS), and declustering potentials of 80 V (S1–S15), 90 V (Zuranolone), and 180 V (IS). Other conditions were as follows: curtain gas 10 psi, collision gas ‘medium’, ion spray voltage 5500 V, temperature 500 °C, and ionization source gases 1 and 2 at 50 psi.
(§2) Zuranolone was solubilized in 5% DMSO with solutol HS 15 in saline. S9 was solubilized in 10% DMSA with 30% SBECD (Zibo Qianhui Biological Technology Co., Ltd., Zibo, China) in saline. After fasting for 12 h, rats (n = 6 per group) were administered Zuranolone and S9 intragastrically (i.g.) at a dose of 24.4 μmol/kg, and intravenously (i.v.) at 6.1 μmol/kg. Blood samples (200 μL) were collected into 1.5 mL tubes containing heparin at 15 min, 30 min, 1, 2, 3, 4, 6, 8, 12, 24, 48, and 96 h after i.g. or at 5, 15, 30 min, and 1, 2, 3, 4, 6, 8, 12, 24, 48, 96 h after i.v. Plasma was separated by centrifugation for 5 min (8000 rpm, 4 °C) and stored at −80 °C immediately.

[2] = Liver microsome metabolic stability (HLM); type: in vitro ADME, human; design: microsomal CLint at 1 μmol/L: unit not given here; details: for half-life at 1 μmol/L: read-out: HLM T1/2
Procedure: as §1
(§3) To evaluate the metabolic stability of compounds S1–S15 and Zuranolone in RLM and HLM, we designed the following in vitro liver microsome metabolism assay protocol. In a 1.5 mL centrifuge tube, sequentially add 173 μL of PBS (0.1 M, pH 7.4), 5 μL of liver microsomes (20 mg/mL), and 2 μL of the test compound (100 μmol/L). After thorough mixing, pre-incubate at 37 °C for 10 min. Subsequently, add 20 μL of NADPH to initiate the metabolism, with a parallel control without NADPH, to validate the background signal. Samples were collected at 0, 5, 10, 20, 30, and 60 min post-reaction initiation. At each designated time point, we quenched the reaction with ice-cold acetonitrile (600 μL). After centrifuging the mixture, we analyzed the supernatant using UPLC-MS/MS. For data analysis, the compound concentration at 0 min was set as 100%, with concentrations at subsequent time points expressed as residual percentages relative to the initial value, and the in vitro half-life (T1/2) and intrinsic clearance (CLint) were calculated.

[3] = Plasma pharmacokinetic study in rats; type: in vivo, rat; details: for AUC(0-t) / C0 / half-life / Cmax / Tmax: rat plasma, n = 6; for bioavailability / Tmax: rat, plasma; for bioavailability: oral, 24.4 μmol/kg, i.g. 24.4 vs i.v. 6.1 μmol/kg, read-out: F (oral absolute bioavailability)
Procedure: as §1, §2
Experimental data were analyzed by GraphPad Prism software 9.0 and presented as means ± SD. Statistical differences were determined by one-way ANOVA followed by Dunnett’s post-hoc test, with p < 0.05 considered statistically significant. Main pharmacokinetic parameters were calculated using Phoenix WinNonlin 8.1 (non-compartmental model), and the absolute bioavailability of S9 was determined by the following formula: (AUC i.g. (0–t) × dose i.v.)/(AUC i.v. (0–t) × dose i.g.) × 100%.

[4] = Liver microsome metabolic stability (RLM); type: in vitro ADME, rat; design: microsomal CLint at 1 μmol/L: unit not given here; details: for half-life at 1 μmol/L: read-out: RLM T1/2
Procedure: as §1, §3

[5] = system: loss of righting reflex; test: Loss of righting reflex (LORR) test; type: in vivo, rat; details: rats; for LORR threshold dose: intragastric
Procedure: We randomly assigned rats into 6 groups (n = 10): Zuranolone groups at doses of 9.8, 15.6, and 19.5 μmol/kg and S9 groups at doses of 38.9, 48.6, and 58.3 μmol/kg. The number of animals showing LORR, defined as the inability to turn over within 30 s while in the supine position, was recorded within 4 h following intragastric administration of the test drugs or vehicle.

[6] = iv, 6.1 umol/kg, i.v. 6.1 μmol/kg
[7] = po, 24.4 umol/kg, i.g. 24.4 μmol/kg

Row | SMILES | AUCBrain 0–t [1] | Brain concentration ([1]; 0.5 h) | Brain concentration ([1]; 2 h) [nmol/kg] | Brain concentration ([1]; 6 h) | Brain concentration ([1]; 24 h) | half-life at 1 μmol/L ([2]; pH 7.4, human liver microsomes) [h] | AUC(0-t) [3, 6] [µM·h] | C0 [3, 6] [µM] | half-life [3, 6] [h] | AUC(0-t) [3, 7] [µM·h] | Cmax [3, 7] [µM] | half-life [3, 7] [h] | bioavailability ([3]; rats) [%] | Tmax [3, 7] [h] | half-life at 1 μmol/L ([4]; pH 7.4, rat liver microsomes) [h] | LORR threshold dose [5] [µmol/kg] | other results
1 | C[C@@]1(O)CC[C@H]2[C@H](CC[C@@H]3[C@@H]2CC[C@]2(C)[C@@H](C(=O)Cn4cnn(-c5ccnc(OCC(F)(F)F)c5)c4=O)CC[C@@H]32)C1 [S9] | 30,969 nmol/kg·h and 30,969 ± 8450 nmol/kg·h | 189 nmol/kg and 189 ± 30 nmol/kg | 1895 ± 593 | 2132 nmol/kg and 2132 ± 683 nmol/kg | 175 nmol/kg and 175 ± 35 nmol/kg | 2.57 | 24.2 | 2.86 ± 0.223 | 16.4 ± 0.56 | 80.4 | 3.6 ± 0.541 | 19.8 ± 1.5 | 82.9 | ~3.7 | 3.1 | 38.9 | F AUCBrain 0–t S9/Zuranolone (relative brain bioavailability) [1]: 324%; fold longer T1/2 than Zuranolone ([2]; HLM): 1.2 fold; fold lower CLint than Zuranolone ([2]; HLM): 1.2 fold; microsomal CLint at 1 μmol/L ([2]; pH 7.4, human liver microsomes): 9000; increase in AUC compared to S28 ([3]; S28 previously reported ref 25): over 2 fold; increase in T1/2 compared to S28 ([3]; S28 previously reported ref 25): over 2 fold; AUC0–t as fold of Zuranolone ([3]; rats, i.g. 24.4 μmol/kg): approximately 6.7 fold; T1/2 as fold of Zuranolone ([3]; rats, i.g. 24.4 μmol/kg): approximately 5.2 fold; AUC0–t as fold of Zuranolone ([3]; rats, i.v. 6.1 μmol/kg): approximately 4.7 fold; T1/2 as fold of Zuranolone ([3]; rats, i.v. 6.1 μmol/kg): approximately 6.6 fold; AUC higher than Zuranolone ([3]; rats, route not given): 6 fold; plasma T1/2 longer than Zuranolone ([3]; rats, route not given): 5 fold; fold longer T1/2 than Zuranolone ([4]; RLM): 4 fold; fold lower CLint than Zuranolone ([4]; RLM): 6.5 fold; microsomal CLint at 1 μmol/L ([4]; pH 7.4, rat liver microsomes, read-out: RLM intrinsic clearance (CLint)): 8000; Latency to LORR ([5]; i.g. 48.6 μmol/kg): 68 min; Latency to LORR ([5]; i.g. 58.3 μmol/kg): 59 min
2 | C[C@@]1(O)CC[C@H]2[C@H](CC[C@@H]3[C@@H]2CC[C@]2(C)[C@@H](C(=O)Cn4cc(C#N)cn4)CC[C@@H]32)C1 [Zuranolone] | 9549 nmol·h/kg and 9549 ± 2529 nmol·h/kg | 3103 nmol/kg and 3103 ± 795 nmol/kg | 2220 ± 574 | 193 nmol/kg and 193 ± 56 nmol/kg | below the quantification limit (BQL); also recorded: BQL ^b | 2.07 | 5.18 ± 1.73 | 3.43 ± 1.74 | 2.5 ± 1.3 | 12 | 2.28 ± 0.554 | 3.8 ± 1.7 | 57.7 | ~1.2 | 0.8 | 9.8 | Latency to LORR ([5]; i.g. 15.6 μmol/kg): 35 min; Latency to LORR ([5]; i.g. 19.5 μmol/kg): 30 min
